Experimental data: patent publication EP3324923B1, “COMPOSITIONS AND METHODS USING PALYTHINE” (King's College London, priority 2015, dated 2017)

Experiments:
[1] = system: HaCaT keratinocytes; assay: Reactive oxygen species assay by FACS (carboxy-H2DCFDA), UV filtering and antioxidant effect, Example 16; assay type: cell-based, human; conditions: for ROS production compared to irradiated control: 20J/cm^2 of SSR, n=5, p<0.0001
Method: DNA damage was then measured using the comet assay and IHC-IF looking at the specific DNA lesions of cyclobutane pyrimidine dimers (CPD) and 8-oxoGua. A percentage reduction in general and specific DNA damage was then determined by comparing cells irradiated with and without sunscreen compositions. Antioxidant ability was detected using H2DCFDA, which fluoresces when reacting with ROS with the addition of palythine post exposure. SSR induced gene expression covering a range of different markers (inflammation, photoageing, oxidative damage) was assessed using qPCR. The ability of palythine to reduce this gene expression was then assessed.
All assays were performed on HaCat cells grown as a 70-80 % confluent monolayer in multiwell plates. They were washed three times in PBS and covered with palythine dissolved in PBS at differing concentrations (0, 0.1, 0.3 %, 4 % and 10 % w/v). The cells were then irradiated with either SSR or UVA radiation (5-20 J/cm^2 or 20 J/cm^2 respectively). After irradiation the palythine solution was removed and the cells washed a further three times and replaced in media or processed immediately depending on the experimental design.
HaCat cells were irradiated as above or for the anti-oxidant studies, cells were also incubated with palythine post irradiation. Cells were then incubated with 10uM carboxy-H2DCFDA (Invitrogen, UK) in PBS for 30 mins in the dark at 37 °C, 5 % CO2. Cells were washed in PBS, trypsinised for 10 minutes at 37 °C, centrifuged at 1200 rpm for 5 minutes at room temperature and resuspended in PBS and counterstained with DAPI for analysis by FACS. This was carried out with a Becton Dickinson FACSAria II. Cells were gated to only analyse live cells (DAPI negative) and the average mean green intensity per condition was then plotted from at least 10,000 measured events. Analysis was carried out using FlowJo 8.7 (USA).

[2] = system: HaCaT keratinocytes; assay: Single-cell gel electrophoresis (comet assay) of UV-induced DNA damage; assay type: cell-based, human; conditions: for percentage change in % DNA in the tail in protected cells compared to unprotected cells: n=3, t-test; for Mean % DNA Damage: 10J/cm^2 UVA
Method: This measurement is based on the comet assay (single cell gel electrophoresis) which detects damage to nuclear DNA that result from nucleotide excision repair (NER) and nucleotide photooxidation. Using the lesion specific enzymes T4N5 that recognizes CPD and hOGG1 that recognizes 8-oxoGua, palythine was tested by comparing pure palythine compound with naturally occurring amphoteric MAA mixtures to that of industry accepted sun-filter controls.
Powdered sunscreens were dissolved in PBS (Sigma-Aldrich, UK) at a concentration in which they can dissolve fully (0-0.3%). They were then applied (200ul/well) to wells of a 24 well plate containing a washed monolayer of cells. Cells were then irradiated and the sunscreen removed and washed post treatment.
Irradiation was carried out on cells in monolayers at a distance of 3 cm (Solar Simulator) in cold PBS or PBS + sunscreen. The plate was always placed on a cooling platform at 4°C to avoid overheating of the cells. Unirradiated samples were maintained in PBS for the same time and temperature as irradiated samples.
DNA damage was measured using the comet assay, using lesion specific enzymes to determine the type of damaged produced.
Glass slides are pre-coated with 1% agarose and allowed to dry. Cells were treated with UV +/- sunscreens. Positive controls were treated with ice cold 0.03% Hydrogen Peroxide for 5 minutes, negative controls were kept in the same conditions as the treatments without UV exposure.
After treatment cells were scraped gently with a cell scraper in EDTA solution to help dissociate cells and stop clumping. The cells (40ul) were then added to low melting point (LMP) agarose (160ul) and gently mixed. The final concentration of cells in the LMP agarose was 10,000 cells/100ul of agarose. Then 100ul of the agarose-cell solution was pipetted onto the pre-coated slides and a cover slip was placed onto the gels and left to set for 5-10 minutes then removed. Two replicates were placed on each slide. All steps were carried out on a cooled platform at 4°C. Slides were then places into lysis buffer (2.5M NaCl, 100mM EDTA, 10mM TRIS, 1% sodium sarcosinate, 1% Triton x-100, 10% DMSO) overnight at 4°C in the dark.
Slides were then washed in ice-cold ddH2O (2x5 mins) in the dark and once in ice cold enzyme reaction buffer (0.4mM HEPES, imMKCl, 0.005mM EDTA, 0.02mg/ml BSA) for 5 minutes. After this step different lesions were detected using lesion specific enzymes.
Cylcobutane pyrimidine dimers were measured using the T4 endonuclease V (T4endoV) enzyme. After washing, 50ul of enzyme diluted in reaction buffer (hOGG1- 3.2U/ml, T4EndoV - 0.1U/ml) or reaction buffer alone were added to each gel, a cover slip placed on top and left in a humidity chamber in the dark at 37°C for 45 minutes.
After enzyme treatment coverslips were removed and transferred into ice-cold electrophoresis buffer (10mM NaOH, 200mM EDTA, pH13 in ddH2O) and incubated at 4°C in the dark for 20 minutes. Electrophoresis was then carried out in fresh electrophoresis buffer for 25 minutes at 25V (1V/cm) 300mA, at 4°C in the dark. Slides were then washed in neutralisation buffer (0.4M TRIS, pH7.5) for 2x 10 minutes, and then in ddH2O for 2x 5 minutes and slides were allowed to dry overnight.
The DNA embedded in the slides was stained using Propidium Iodide solution (2.5ug/ml in PBS), 50ul of the solution was added to each gel and cover slip placed over. The slides were then analysed on a Zeiss Axiophot epifluorescence microscope (Carl Zeiss, Germany), with a green excitation filter (536nm) detected with a red emission at 617nm. Pictures covering the whole gel were taken, avoiding the outer edges, using a Nikon camera at a magnification of 10x. The images were then analysed using Comet Score Pro software (Tritek Corp, Summerduck, VA), typically scoring 150 individual comets per condition. […]

[3] = Absorbance profile; assay type: physicochemical; conditions: Example 14
Method: palythine was extracted from the red algae Palmaria decipiens using a methanol extraction (Confirmed by HPLC & LC-MS). The absorbance profile was determined and then the extract was exposed to increasing doses of solar simulated radiation (SSR) from a solar simulator (conforming to COLIPA standards). The absorbance profile was measured to determine photostability. Compositions according to the invention (in this example solutions of palythine) were prepared at different palythine concentrations (0.3% to 10%), as well as controls comprising 0% palythine, and HaCat keratinocytes were irradiated with SSR or UVA radiation through the solutions, which were placed on top of the cells.
Palythine was exposed to increasing doses of solar simulated radiation and absorbance measured. The absorbance spectrum of the palythine was measured between 280-400 nm using a Spectra Max 384 Plus (Molecular Devices; California, USA) spectrophotometer. Referring to figure 18, we show the photostability of palythine after exposure to increasing doses of solar simulated radiation. Palythine (0.0001% w/v palythine extracted from red algae Chondrus yendoi in PBS) was exposed to increasing doses of solar simulated radiation and the absorbance was measured to determine photostability.

## COC1=C(NCC(=O)O)CC(O)(CO)CC1=N (centres unmarked) [palythine]
[1]; 10% palythine post exposure (anti-oxidant)
  ROS production compared to irradiated control: significant reduction
[1]; palythine 0.3-10%w/v added pre exposure
  ROS production compared to irradiated control: significant reduction
[1]; Example 14, H2DCFDA, addition of palythine post exposure, p=<0.05
  ROS production due to SSR irradiation (anti-oxidant properties): significant reduction
[2]; 0.3% palythine (48% damage) versus Gelyma composition at 4% (76% damage)
  improved protection from DNA damage: 58.33%
[2]; 0.3% palythine, from the applicant's data
  DNA damage: 48%
[2]; 5J/cm^2 solar simulated UVR, 0.3% palythine, figure 9
  percentage change in % DNA in the tail in protected cells compared to unprotected cells: significant protection
[2]; 20J/cm^2 UVA, 0.3% palythine, figure 10
  percentage change in % DNA in the tail in protected cells compared to unprotected cells: significant protection
[2]; No Enzyme (single strand breaks / alkali labile sites), 0.1% palythine in PBS, mean percentage of tail DNA, n=1
  Mean % DNA Damage: 14.263%
[2]; No Enzyme (single strand breaks / alkali labile sites), 0.3% palythine in PBS, mean percentage of tail DNA, n=1
  Mean % DNA Damage: 9.914%
[2]; T4N5 (cyclobutane pyrimidine dimers, CPDs), 0.1% palythine
  Mean % DNA Damage: 26.328%
[2]; T4N5 (cyclobutane pyrimidine dimers, CPDs), 0.3% palythine
  Mean % DNA Damage: 15.345%
[2]; comet assay and IHC-IF, palythine at 0.3% or greater, UVA and SSR induced damage, p=<0.05
  protection for the DNA lesions tested (general damage, CPD and 8oxoGua): significant protection
[2]; lesion specific enzymes T4N5 (CPD) and hOGG1 (8-oxoGua)
  DNA damage caused by UVA and UVB exposure: significantly reduces DNA damage
[3]
  absorbing in the UVB and UVA ranges: 290-350 nm
